Patent US20120309622A1, “HERBICIDES CONTAINING SUBSTITUTED THIEN-3-YL-SULPHONYLAMINIO(THIO)CARBONYL-TRIAZOLIN(ETHI)ONES” (BAYER INTELLECTUAL PROPERTY GMBH, priority 2001, published 2012)
Values joined by “and” are separate entries in the source; they are usually repeats but may differ in a detail not shown here. Equal values may be shown once. Read-outs that look alike come from different tables or passages of the source.

Experiments:
Type in all cases: in vivo
test plants = test: Post-emergence test/greenhouse, % damage after three weeks (further test plants, Tables A-1-30 to A-1-104)
Text: (§1) The expected action for a given combination of two herbicides can be calculated as follows (cf. COLBY, S. R.: “Calculating synergistic and antagonistic responses of herbicide combinations”, Weeds 15, pages 20-22, 1967):
(§2) If • X=% damage by herbicide A (active compound of the formula I) at an application rate of p kg/ha and • Y=% damage by herbicide B (active compound of the formula II) at an application rate of q kg/ha and • E=the expected damage of herbicides A+B at an application rate of p+q kg/ha, then
(§3) If the actual damage exceeds the calculated value, the combination has a superadditive effect, that is to say a synergistic effect.
(§4) Test plants are grown under control conditions (temperature and light). Once the plants have reached a height of 5 to 15 cm, the test compound or the combination of test compounds is applied by spraying such that the particular amounts of active compound desired are applied per unit area. The concentration of the spray liquor is chosen so that the particular amounts of active compound desired are applied in 500 litres of water/ha.
(§5) Following the spray application, the plant containers are kept in the greenhouse under constant light and temperature conditions.
(§6) After three weeks, the degree of damage to the plants is rated in % damage in comparison to the development of the untreated control.
(§7) The figures denote: • 0%=no effect (like untreated control) • 100%=total destruction

Viola arvensis = test: Post-emergence test/greenhouse, % damage after three weeks
Text: as §1, §2, §3, §4, §5, §6, §7

Digitaria sanguinalis = test: as above
Text: as §1, §2, §3, §4, §5, §6, §7

Setaria viridis = test: as above; details: for Setria viridis observed: post-emergence
Text: as §1, §2, §3, §4, §5, §6, §7

Xanthium strumarium = test: as above
Text: as §1, §2, §3, §4, §5, §6, §7

Avena fatua = test: as above
Text: as §1, §2, §3, §4, §5, §6, §7

Ipomoea hederacea = test: as above
Text: as §1, §2, §3, §4, §5, §6, §7

Alopecurus myosuroides = test: as above
Text: as §1, §2, §3, §4, §5, §6, §7

Cyperus esculentus = test: as above
Text: as §1, §2, §3, §4, §5, §6, §7

Matricaria inodora = test: as above
Text: as §1, §2, §3, §4, §5, §6, §7

Chenopodium album = test: as above
Text: as §1, §2, §3, §4, §5, §6, §7

Abutilon theophrasti = test: as above
Text: as §1, §2, §3, §4, §5, §6, §7

Galium aparine = test: as above; details: 4 g of ai/ha
Eriochloa villosa = test: as above
Lolium perenne = test: as above
Veronica persicaria = test: as above
Protocol: as §1, §3
(§8) Test plants are grown under control conditions (temperature and light).
as §5, §6

Bromus secalinus = test: as above; details: Bromus secalinus, post-emergence, 504 h, read-out: Bromus secalinus observed
Protocol: as §1, §3, §8, §5, §6

Cassia tora = test: as above
Protocol: as §1, §3, §8, §5, §6

Polygonum convolvolus = test: as above

COC(=O)c1csc(C)c1S(=O)(=O)NC(=O)n1nc(OC)n(C)c1=O [I-2] was tested, and the Polygonum convolvolus observed (test plants; application rate 2 g of ai/ha) was 70%, the Polygonum convolvolus observed (test plants; application rate 4 g of ai/ha) was 80% and the Polygonum convolvolus observed (test plants; application rate 8 g of ai/ha) was 90%. It also gave a Viola arvensis observed (Viola arvensis; 4 g of ai/ha) of 40%, a Viola arvensis observed (Viola arvensis; 8 g of ai/ha) of 50% and a Digitaria sanguinalis observed (Digitaria sanguinalis; 4 g of ai/ha) of 60%. The Digitaria sanguinalis observed (Digitaria sanguinalis; 8 g of ai/ha) was 80% and 90%, the Setaria viridis observed (Setaria viridis; 2 g of ai/ha) was 90% and the Setaria viridis observed (Setaria viridis; 4 g of ai/ha) was 80% and 90%. The Setaria viridis observed (Setaria viridis; 8 g of ai/ha) was 90% and 95%, the Setria viridis observed (Setaria viridis; application rate 2 g of ai/ha) was 90% and the Setria viridis observed (Setaria viridis; application rate 4 g of ai/ha) was 90%. The Xanthium strumarium observed (Xanthium strumarium; 4 g of ai/ha) was 90%, the Xanthium strumarium observed (Xanthium strumarium; 8 g of ai/ha) was 70% and the Avena fatua observed (Avena fatua; 2 g of ai/ha) was 70% and 50% and 80%. The Avena fatua observed (Avena fatua; 4 g of ai/ha) was 80% and 70% and 90%, the Avena fatua observed (Avena fatua; 8 g of ai/ha) was 70% and 90% and the Avena fatua observed (Avena fatua; 15 g of ai/ha) was 70%. The Ipomoea hederacea observed (Ipomoea hederacea; 2 g of ai/ha) was 80%, the Ipomoea hederacea observed (Ipomoea hederacea; 4 g of ai/ha) was 80% and the Ipomoea hederacea observed (Ipomoea hederacea; 8 g of ai/ha) was 80%. The Alopecurus myosuroides observed (Alopecurus myosuroides; 2 g of ai/ha) was 70% and 80%, the Alopecurus myosuroides observed (Alopecurus myosuroides; 4 g of ai/ha) was 70% and 80% and the Alopecurus myosuroides observed (Alopecurus myosuroides; 8 g of ai/ha) was 90% and 80%. For the same compound, the Alopecurus myosuroides observed (Alopecurus myosuroides; 15 g of ai/ha) was 90% and 80%, the Cyperus esculentus observed (Cyperus esculentus; 8 g of ai/ha) was 80% and 70% and the Cyperus esculentus observed (Cyperus esculentus; 15 g of ai/ha) was 70%. For the same compound, the Matricaria inodora observed (Matricaria inodora; 2 g of ai/ha) was 50% and 80%, the Matricaria inodora observed (Matricaria inodora; 4 g of ai/ha) was 70% and the Matricaria inodora observed (Matricaria inodora; 15 g of ai/ha) was 95%. The Chenopodium album observed (Chenopodium album; 4 g of ai/ha) was 70%, the “Activity against Chenopodium album (%)” value (Chenopodium album; 8 g of a.i./ha) was 70% and the Chenopodium album observed (Chenopodium album; 8 g of ai/ha) was 85%. The Chenopodium album observed (Chenopodium album; application rate 2 g of ai/ha) was 70%, the Abutilon theophrasti observed (Abutilon theophrasti; 2 g of ai/ha) was 60% and the Abutilon theophrasti observed (Abutilon theophrasti; 4 g of ai/ha) was 70%. For the same compound, the “Activity against Abutilon theophrasti (%)” value (Abutilon theophrasti; 8 g of a.i./ha) was 70%, the Galium aparine observed (Galium aparine) was 80% and the Eriochloa villosa observed (Eriochloa villosa; 4 g of ai/ha) was 40% and 30%. For the same compound, the Eriochloa villosa observed (Eriochloa villosa; 8 g of ai/ha) was 70% and 60% and 90%, the Lolium perenne observed (Lolium perenne; 2 g of ai/ha) was 70% and 80% and the Lolium perenne observed (Lolium perenne; 4 g of ai/ha) was 70%. The Lolium perenne observed (Lolium perenne; 8 g of ai/ha) was 90%, the Veronica persicaria observed (Veronica persicaria; 2 g of ai/ha) was 0% and the Veronica persicaria observed (Veronica persicaria; 15 g of ai/ha) was 60% and 40%. It also gave a pest or weed control at 2 g/ha (Bromus secalinus; 2 g of ai/ha) of 70%, a pest or weed control at 4 g/ha (Bromus secalinus; 4 g of ai/ha) of 70% and a pest or weed control at 8 g/ha (Bromus secalinus; 8 g of ai/ha) of 80%. It also gave a pest or weed control at 15 g/ha (Bromus secalinus; 15 g of ai/ha) of 70%, a pest or weed control at 8 g/ha (Bromus secalinus; application rate 8 g of ai/ha) of 80% and a Cassia tora observed (Cassia tora; 2 g of ai/ha) of 20%. It also gave a Cassia tora observed (Cassia tora; 4 g of ai/ha) of 0%, a Cassia tora observed (Cassia tora; 8 g of ai/ha) of 0% and a Polygonum convolvolus observed (Polygonum convolvolus; 2 g of ai/ha) of 70%. For the same compound, the Polygonum convolvolus observed (Polygonum convolvolus; 4 g of ai/ha) was 70% and 80%.
